Results taken from patent US20250074911A1, “MACROCYCLIC BTK INHIBITORS” (Crossfire Oncology Holding B.V., priority 2021, published 2025).

Key:
[1] = target: full-length wt-BTK enzyme (Homo sapiens (Human), UniProt Q06187); test: Biochemical kinase assay wt-BTK (IMAP)
Method in brief: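 Compound and enzyme (final 1.2 nM) were pre-incubated for 1 h at RT, after which the reaction was started with 4 μM ATP plus 50 nM fluorescein-MBP substrate peptide. After 2 h in the dark, the IMAP progressive binding reagent stopped the reaction, and phosphorylation was read by fluorescence polarization.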

[2] = target: full-length BTK C481S enzyme (Homo sapiens (Human), UniProt Q06187, C481S); test: Biochemical kinase assay BTK C481S (IMAP)
Method in brief: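 IC50 values come from IMAP fluorescence polarization after quenching with progressive binding solution. The reaction ran 2 h at room temperature in the dark with 1.2 nM full-length C481S enzyme, 7 μM ATP and 50 nM fluorescein-labelled MBP-derived peptide, following a 1 h dark pre-incubation of compound with enzyme.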

[3] = test system: wt-REC-1 mantle cell lymphoma cells; test: Cell proliferation assay wt-REC-1 (ATPlite, 72 hours); type: cell-based; details: 72 h; read-out: IC50 wt-REC-1
Method in brief: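 Luminescent viability read over 72 h, start-of-incubation signal recorded separately to separate growth from cell death. Percentage growth referenced to compound-free 0.3% DMSO wells; IC50 from 4-parameter logistic fit.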

REC-1 T474I cell lines = test: Cell proliferation assay REC-1 BTK T474I knock-in cells (ATPlite, 72 hours); type: cell-based; details: Homo sapiens, Rec1; 72 hours; read-out: IC50 REC-1 T474I
Method in brief: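 REC-1 cells carrying CRISPR knock-in mutant BTK, single-cell cloned and sequence-confirmed, were exposed to compound for 72 h and read by ATPlite luminescence. Percentage growth was calculated against the signal at the start of incubation and against untreated 0.3% DMSO wells as maximum growth.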

wt-BTK = wt-BTK (Homo sapiens (Human), UniProt Q06187); test: Binding kinetics measurements (Surface Plasmon Resonance) on wt-BTK; details: for Kd: binding affinity by Surface Plasmon Resonance (SPR); for Tau (h) wt-BTK (Act): target residence time, SPR
Method in brief: (§1)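 Constants come from single-cycle kinetics: five rising compound injections (3.16-316 nM) at 30 μl/min and 22° C over streptavidin-captured BTK (wild type or mutant), running buffer containing 1% DMSO. Double referencing applied; induced-fit binders fitted to a two-state model; duplicates geometrically averaged; residence time derived.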

BTK C481S = BTK C481S (Homo sapiens (Human), UniProt Q06187, C481S); test: Binding kinetics measurements (Surface Plasmon Resonance) on BTK C481S; details: for Kd: binding affinity by Surface Plasmon Resonance (SPR); for Tau (h) BTK C418S (Act): target residence time for BTK C481S, SPR
Method in brief: as §1

BTK T316A = BTK T316A (Homo sapiens (Human), UniProt Q06187, T316A); test: Binding kinetics measurements (Surface Plasmon Resonance) on BTK T316A; details: for Tau (h) BTK T316A (Act): target residence time, SPR; for Kd: binding affinity by Surface Plasmon Resonance (SPR)
Method in brief: as §1

BTK T474I = BTK T474I (Homo sapiens (Human), UniProt Q06187, T474I); test: Binding kinetics measurements (Surface Plasmon Resonance) on BTK T474I; details: for Kd: binding affinity by Surface Plasmon Resonance (SPR); for Tau (h) BTK T474I (Act): target residence time, SPR
Method in brief: as §1

BTK T474S = BTK T474S (Homo sapiens (Human), UniProt Q06187, T474S); test: Binding kinetics measurements (Surface Plasmon Resonance) on BTK T474S; details: for residence time: SPR binding kinetics, BTK T474S, read-out: Tau (h) BTK T474S (Act), target residence time (converted); for Kd: binding affinity by Surface Plasmon Resonance (SPR)
Method in brief: as §1

[4] = test system: wt-TMD8 diffuse large B-cell lymphoma cells; test: Cell proliferation assay wt-TMD8 (ATPlite, 120 hours); type: cell-based; details: B-cell; wt-TMD8 cells, 120 hours, ATPlite; read-out: IC50 wt-TMD8
Method in brief: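 Readout is percentage growth from ATPlite 1Step luminescence after 5 days (120 h) compound treatment of wt-TMD8 lymphoma cells (1600/well, RPMI-1640 + 10% FBS). Time-zero signal separates growth inhibition from cell kill; 0.3% DMSO wells without compound define maximal growth.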

Chain of BTK T316A (Q06187 whole entry T316A): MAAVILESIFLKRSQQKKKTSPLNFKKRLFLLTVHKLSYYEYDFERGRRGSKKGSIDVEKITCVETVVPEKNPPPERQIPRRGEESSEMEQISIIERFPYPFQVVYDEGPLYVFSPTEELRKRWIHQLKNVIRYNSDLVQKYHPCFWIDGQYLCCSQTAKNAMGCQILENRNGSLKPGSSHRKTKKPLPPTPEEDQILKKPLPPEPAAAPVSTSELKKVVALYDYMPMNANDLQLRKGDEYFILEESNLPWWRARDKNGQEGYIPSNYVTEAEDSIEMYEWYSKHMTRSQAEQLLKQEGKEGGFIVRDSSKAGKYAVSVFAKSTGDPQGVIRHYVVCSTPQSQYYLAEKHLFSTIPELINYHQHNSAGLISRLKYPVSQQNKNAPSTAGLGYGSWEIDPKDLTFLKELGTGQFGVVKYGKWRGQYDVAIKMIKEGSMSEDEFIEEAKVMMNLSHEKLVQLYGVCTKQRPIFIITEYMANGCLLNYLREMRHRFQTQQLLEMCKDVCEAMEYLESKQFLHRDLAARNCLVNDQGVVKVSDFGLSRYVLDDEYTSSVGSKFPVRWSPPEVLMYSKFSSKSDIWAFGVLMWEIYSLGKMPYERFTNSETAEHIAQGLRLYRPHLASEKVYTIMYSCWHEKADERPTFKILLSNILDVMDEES
Chain of BTK T474I (Q06187 whole entry T474I): as the sequence (Q06187 whole entry T316A) above, with A316T, T474I counted along it
Chain of full-length wt-BTK enzyme (Q06187 whole entry): as the sequence (Q06187 whole entry T316A) above, with A316T counted along it
Chain of wt-BTK (Q06187 whole entry): as the sequence (Q06187 whole entry T316A) above, with A316T counted along it
Chain of BTK C481S (Q06187 whole entry C481S): as the sequence (Q06187 whole entry T316A) above, with A316T, C481S counted along it
Chain of full-length BTK C481S enzyme (Q06187 whole entry C481S): as the sequence (Q06187 whole entry T316A) above, with A316T, C481S counted along it
Chain of BTK T474S (Q06187 whole entry T474S): as the sequence (Q06187 whole entry T316A) above, with A316T, T474S counted along it

Row | Structure (SMILES) | IC50 [1] | IC50 [2] | IC50 [3] | IC50 (REC-1 T474I cell lines) | Kd (wt-BTK) | Tau (h) wt-BTK (Act) (wt-BTK) | Kd (BTK C481S) | Tau (h) BTK C418S (Act) (BTK C481S) | Tau (h) BTK T316A (Act) (BTK T316A) | Kd (BTK T474I) | Tau (h) BTK T474I (Act) (BTK T474I) | residence time (BTK T474S) | Kd (BTK T474S) | IC50 [4] | Kd (BTK T316A)
1 | C[C@H]1CC(=O)N[C@@H]2CCC[C@H](C2)n2nc(-c3ccc(C(=O)Nc4cc(C(F)(F)F)ccn4)cc3)c3c(N)ncc(c32)/C=C/CN1C [Example 151] | < 5 nM | < 5 nM | 100 to 1000 nM | 100 to 500 nM | < 5 nM | 7.58 h | < 5 nM | 8.25 h | 1.89 h | < 2 nM | 0.70 h | 2.11 h | < 3 nM | < 100 nM | –
2 | C[C@H]1CC(=O)N[C@@H]2CCC[C@H](C2)n2nc(-c3ccc(C(=O)Nc4cc(C(F)(F)F)ccn4)cc3)c3c(N)ncc(c32)/C=C/CCN1C [Example 152] | < 5 nM | < 5 nM | 100 to 1000 nM | < 100 nM | < 5 nM | 2.36 h | < 5 nM | 5.84 h | 6.08 h | < 2 nM | 2.11 h | 1.24 h | < 3 nM | < 100 nM | < 5 nM
3 | C[C@@H]1CCn2nc(-c3ccc(C(=O)Nc4cc(C#N)ccn4)cc3)c3c(N)ncc(c32)/C=C/CCOCCC(=O)N1 [Example 153] | < 5 nM | < 5 nM | 100 to 1000 nM | 500 to 10000 nM | < 5 nM | 1.29 h | < 5 nM | 1.67 h | – | < 2 nM | – | 1.97 h | < 3 nM | < 100 nM | < 5 nM
4 | N#Cc1ccnc(NC(=O)c2ccc(-c3nn4c5c(cnc(N)c35)/C=C/CCOCCC(=O)N[C@@H]3CCC[C@@H]4C3)cc2)c1 [Example 155] | < 5 nM | < 5 nM | < 100 nM | < 100 nM | < 5 nM | 9.97 h | < 5 nM | 2.21 h | 2.91 h | < 2 nM | 2.63 h | 3.8 h | < 3 nM | < 100 nM | < 5 nM
5 | C[C@@H]1CC(=O)N[C@@H]2CCC[C@H](C2)n2nc(-c3ccc(C(=O)Nc4cc(C(F)(F)F)ccn4)cc3)c3c(N)ncc(c32)/C=C/CCO1 [Example 157] | < 5 nM | < 5 nM | < 100 nM | < 100 nM | < 5 nM | 5.15 h | < 5 nM | 2.42 h | 5.27 h | < 2 nM | 3.34 h | 1.47 h | < 3 nM | < 100 nM | < 5 nM
6 | C[C@@H]1CC(=O)N[C@@H]2CCC[C@H](C2)n2nc(-c3ccc(C(=O)Nc4cc(C#N)ccn4)cc3)c3c(N)ncc(c32)/C=C/CCO1 [Example 162] | < 5 nM | < 5 nM | < 100 nM | < 100 nM | – | 3.41 h | – | 6.32 h | 7.64 h | – | 2.05 h | 2.02 h | – | < 100 nM | –
7 | N#Cc1ccnc(NC(=O)c2ccc(-c3nn4c5c(cnc(N)c35)/C=C/CCCCCC(=O)N[C@@H]3CCC[C@@H]4C3)cc2)c1 [Example 163] | < 5 nM | < 5 nM | < 100 nM | < 100 nM | – | >24 h | – | 3.51 h | 4.67 h | – | 4.37 h | 6.74 h | – | < 100 nM | –
8 | N#Cc1ccnc(NC(=O)c2ccc(-c3nn4c5c(cnc(N)c35)/C=C/COCCC(=O)N[C@@H]3CCC[C@@H]4C3)cc2)c1 [Example 164] | < 5 nM | < 5 nM | < 100 nM | < 100 nM | – | 10.55 h | – | >24 h | 3.41 h | – | 0.90 h | 6.88 h | – | < 100 nM | –
9 | Nc1ncc2c3c1c(-c1ccc(C(=O)Nc4cc(C(F)(F)F)ccn4)cc1)nn3[C@@H]1CC[C@H](C1)NC(=O)CCCCC/C=C/2 [Example 168] | < 5 nM | < 5 nM | < 100 nM | < 100 nM | – | 3.66 h | – | 6.64 h | 3.81 h | – | 3.14 h | > 24 h | – | < 100 nM | –
10 | Nc1ncc2c3c1c(-c1ccc(C(=O)Nc4cc(C(F)(F)F)ccn4)cc1)nn3[C@@H]1CC[C@H](C1)NC(=O)CCOCC/C=C/2 [Example 169] | < 5 nM | < 5 nM | < 100 nM | < 100 nM | – | 2.34 h | – | 6.60 h | 1.77 h | – | 3.69 h | 2.56 h | – | < 100 nM | –
11 | Nc1ncc2c3c1c(-c1ccc(C(=O)Nc4cc(C(F)(F)F)ccn4)cc1)nn3[C@@H]1CC[C@H](C1)NC(=O)CCOC/C=C/2 [Example 170] | < 5 nM | < 5 nM | < 100 nM | < 100 nM | – | 2.05 h | – | 2.76 h | 1.58 h | – | 2.54 h | 3.15 h | – | < 100 nM | –
12 | C[C@@H]1C[C@@H](C)n2nc(-c3ccc(C(=O)Nc4cc(C(F)(F)F)ccn4)cc3)c3c(N)ncc(c32)/C=C/CCCCCC(=O)N1 [Example 172] | < 5 nM | < 5 nM | < 100 nM | < 100 nM | < 5 nM | 4.83 h | < 5 nM | 4.28 h | 2.18 h | < 2 nM | 2.35 h | 18.9 h | < 3 nM | < 100 nM | < 5 nM
